“And” between values parts separate entries of the source, which are not always exact repeats. Identical values can stand only once.
How the values were obtained:
PBMCs = experiment: MTS cell viability in PBMC assay; assay type: cell-based, human; details: AZT control
From the text: Human peripheral blood mononuclear cells from a minimum of 2 donors, that have been blasted with PHA and IL-2, were counted, viability determined by Trypan Blue dye exclusion and mixed in equal ratios. Pooled donors were used to minimize the variability observed between individual donors which results from quantitative and qualitative differences in HIV infection and overall response to the PHA and IL-2 of primary lymphocyte populations. The cells were resuspended at 1×10^6 cells/mL in RPMI 1640 without phenol red supplemented with 15% Fetal Bovine Serum (heat inactivated), 2 mM L-glutamine, 100 U/mL penicillin, 100 μg/mL streptomycin, 10 μg/mL gentamycin and IL-2 (20 U/mL, R&D Systems, Minneapolis, Minn.). Fifty microliters of cells were then distributed to the inner 60 wells of a 96 well round bottom microtiter culture plate in a standard format developed by the Infectious Disease Research department of Southern Research Institute. Each plate contains cell control wells (cells only), virus control wells (cells plus virus), and experimental wells (drug plus cells plus virus). Serially diluted compounds are added to the microtiter plate followed by the appropriate pre-titered strain of HIV-1 or SHIV-1. All samples were assayed in triplicate with a replicate plate without virus for the determination of compound toxicity. The final volume per well was 200 µL. The assay was incubated for 6 days in a humidified atmosphere at 37° C., 5% CO2, after which supernatants were collected, for analysis of RT activity and sister plates analyzed for cell viability by MTS dye reduction. Wells were also examined microscopically and any abnormalities noted.
At assay termination the assay plates were stained with the soluble tetrazolium-based dye MTS (CellTiter® Reagent Promega, Madison, Wis.) to determined cell viability and quantify compound toxicity. […] At termination of the PBMC assay 20 µL of MTS reagent was added per well, and the wells are incubated for 4 h at 37° C.
AZT has been used as a relevant positive control compound for the individual assays.

SHIV 89.6pd = experiment: PBMC antiviral assay (RT activity); assay type: cell-based; details: 6 days, AZT control, read-out: SHIV 89.6pd Infected PBMCs IC50
Protocol: (§1) Human immunodeficiency virus type 1 (HIV-1) strain RoJo is a low passage pediatric isolate derived in the laboratories of Southern Research Institute (SRI). The SHIV89.6pd was obtained from Mark Lewis at SRI and stocks grown in human PBMCs for antiviral testing.
(§2) Peripheral blood monocular cells (PBMCs) were obtained from normal hepatitis and HIV-1 negative donors by ficoll hypaque gradient separation. Briefly, anti-coagulated blood was diluted 1:1 with Dulbecco's phosphate buffered saline without Ca^++ and Mg^++ (PBS) and layered over 14 mL of Lymphocyte separation media in a 50 ml centrifuge tube. Tubes were then centrifuged for 30 minutes at 600×g. […] The mononuclear cells were counted, viability determined by Trypan Blue dye exclusion and resuspended in RPMI 1640 medium supplemented with 15% FBS (heat inactivated), 2 mM L-glutamine, 100 U/mL penicillin, 100 µg/mL streptomycin, and 10 µg/mL gentamycin with 2 µg/mL phytohemagluttin (PHA) at 1×10^6 cells/mL. […]
(§3) Human peripheral blood mononuclear cells from a minimum of 2 donors, that have been blasted with PHA and IL-2, were counted, viability determined by Trypan Blue dye exclusion and mixed in equal ratios. […] The assay was incubated for 6 days in a humidified atmosphere at 37° C., 5% CO2, after which supernatants were collected, for analysis of RT activity and sister plates analyzed for cell viability by MTS dye reduction. […]

HIV-1 RoJo = experiment: PBMC antiviral assay (RT activity); assay type: cell-based; details: 6 days, AZT control, read-out: HIV-1 RoJo Infected PBMCs IC50
Protocol: as §1, §2, §3

HeLa CD4 LTR […]-gal cells [1] = experiment: XTT toxicity on sister plate of the attachment assay; assay type: cell-based; details: XTT, sister plate
Protocol: This assay is designed to detect compounds that interact with the cell and block virus attachment, and/or compounds which interact with the forming attachment/fusion complex. The attachment assay is performed with HeLa CD4 LTR […]-gal cells. HeLa CD4 LTR […]-gal cells are routinely cultured with the required selection antibiotics. Twenty-four h prior to initiation of the assay the cells are trypsinized, counted and 1×10^4 cells placed in a 0.2 cm well in media without selection antibiotics. At 24 h media is removed and compound in media placed on the cells and incubated for 15 min at 37° C. A known titer of the IIIB strain of HIV is then added to the wells and the incubation continued for 1 h. At the end of the incubation the wells are washed 3 times with media and the culture continued for 40 to 48 h. At termination of the assay, media is removed and […]-galactosidase enzyme expression determined by chemiluminescence per manufacturers instructions (Tropix Gal-screen™, Bedford Mass.) by a single step chemiluminescent method using a single solution to lyse the cells and detect […]-galactosidase enzyme activity. Compound toxicity is monitored on a sister plate by XTT dye reduction. […] The virus adsorption interval of 1 h is sufficiently short that AZT, which requires phosphorylation to its active tri-phosphate form (AZT-TTP), is not active in this assay.

HeLa CD4 LTR […]-gal cells [2] = experiment: XTT toxicity on sister plate of the fusion assay; assay type: cell-based; details: XTT, sister plate
Protocol: (§4) The fusion assay assesses the ability of compounds to block cell-to-cell fusion mediated by HIV-1 Env and CD4 expressed on separate cells. This assay is sensitive to inhibitors of both the gp120/CD4 interaction and inhibitors of the X4 coreceptor. First, 5×10^3 HeLa CD4 LTR […]-gal cells are placed in microtiter wells and incubated overnight. The following day the media is removed and the HeLa CD4 LTR […]-gal cells are incubated for 1 h at 37° C. in fresh media with test compound. Following the incubation 5×10^3 HL2/3 cells are added and the incubation continued for 40 to 48 h. At 40 to 48 h […]-galactosidase enzyme expression is detected by chemiluminescence (Tropix Gal-screen™, Tropix, Bedford, Mass.). Compound toxicity is monitored on a sister plate using XTT dye reduction.

[3] = target: T1, cell-to-cell fusion mediated by HIV-1 Env and CD4 (Human immunodeficiency virus type 1 group M subtype B, UniProt P04578); assay type: cell-based; details: TC50/IC50
T1 construct: expressed in transfected cells; host or cells: HeLa CD4 LTR beta-gal cells (CD4) co-cultured with HL2/3 cells (HIV-1 Env)
Protocol: as §4

GHOST(3) X4/R5 cell line = experiment: XTT cell viability in the CD4-dependent transmission assay; assay type: cell-based, human
Protocol: The […] is carried out essentially as described for the CD4-independent transmission assay except for the use of the CD4 positive GHOST(3) X4/R5 cell line. This cell line is derived from the HOS (human osteosarcoma) cell line that is negative for HIV coreceptor and CD4 expression. The cell line is engineered to express T4 (CD4), R5 and X4 via non-selectable retroviral vectors and an HIV-2 LTR hGFP construct with a hygromycin selectable marker. The cell lines are handled and cultured as described above for the CD4-independent HIV inhibition assay, with the exception that 2.5×10^4 GHOST(3) X4/R5 and 5×10^2 mitomycin C treated H9/SK-1 cells are used in the assay. Addition of compounds, mitomycin C treatment and post-transmission washing to remove the H9/SK-1 cells are performed as described above to allow comparability of the two antiviral assays. Virus replication is assessed at 24 h post infection, following 3 washes, by measurement of cell-associated p24 by ELISA to ensure a single round of infection in the presence of CD4. Compound toxicity and cell viability are assessed by XTT dye reduction.

ME180 cells = experiment: XTT cell viability in the CD4-independent transmission assay
Protocol: ME180 cells, a CD4 negative, X4 positive cervical epithelial cell line is maintained in RPMI 1640 supplemented with 10% fetal bovine serum, glutamine and antibiotics. Twenty-four h prior to the assay ME180 cells are trypsonized, washed and seeded in 96-well flat bottom microtiter plates at a density of 2×10^3 cells per well. On the day of the assay, H9 cells chronically infected with the SK1 clinical isolate of HIV-1 (H9-SK1) are treated with freshly made mitomycin C (200 μg/ml) for 60 minutes at 37° C. This concentration of mitomycin C is sufficient to result in cell death, but allows virus transmission to occur. After mitomycin C treatment the H9-SK1 cells are washed three times with tissue culture medium. Test compounds are added to the ME180 monolayer followed by 2×10^4 H9-SK1 cells. The ME180 cells are co-cultured with H9-SK-1 cells and test material for 4 h, and the H9-SK1 cells are removed by washing the ME180 monolayer three times with PBS. At 24 and 48 h post assay initiation the wells are again washed three times with PBS to ensure removal of the H9-SK1 cells, and culture continued in test material free media. At six days post-co-cultivation, supernatants are collected and evaluated for p24 antigen expression by ELISA. Cell viability is assessed by XTT dye reduction. […] Testing in the presence of mucin is carried out by addition of 200 µg/ml of porcine mucin (Sigma Chemical Co., St Louis, Mo.) to the transmission reactions. Transmission intervals and washing without replacement of mucin or compound are carried as described above. All determinations are performed in triplicate with serial ½ Log10 dilution of the test materials.
TC50 values for the test materials are derived by measuring the reduction of the tetrazolium dye XTT (2,3-bis(2-methoxy-4-nitro-5-sulfophenyl)-5-[(phenylamino)carbonyl]-2H-tetrazolium hydroxide) in replicate microtiter plates containing cell and compound without virus. […] XTT solution is prepared daily as a stock of 1 mg/mL in PBS. Phenazine methosulfate (PMS) solution is prepared at 15 mg/mL in PBS and stored in the dark at −20° C. XTT/PMS stock is prepared immediately before use by diluting the PMS 1:100 into PBS and adding 40 µl per mL of XTT solution. Fifty microliters of XTT/PMS are added to each well of the plate and the plate incubated for 4 h at 37° C. The 4 h incubation has been empirically determined to be within the linear response range for […] dye reduction with the indicated numbers of cells for each assay. Adhesive plate sealers are used in place of the lids, the sealed plate is inverted several times to mix the soluble formazan product and the plate is read at 450 nm with a Molecular Devices Vmax 96 well plate format spectrophotometer.
Dextran sulfate (positive) and dextran (negative) are used as controls for the CD4-dependent and CD4-independent HIV transmission inhibition assays. […] Commercially available Penicillin (10,000 U/ml) Streptomycin (10.0 mg/ml) solution is used as a positive control for the Lactobacillus sensitivity assay.

`Cc1cn([C@H]2C[C@H](N=[N+]=[N-])[C@@H](CO)O2)c(=O)[nH]c1=O` [AZT, reference compound] was tested, and the “HIV-1 RoJo Infected PBMCs TC50” value (PBMCs; plate of the HIV-1 RoJo test) was over 1000 nM, the “SHIV 89.6pd Infected PBMCs TC50” value (PBMCs; plate of the SHIV 89.6pd test) was over 1000 nM and the IC50 (SHIV 89.6pd) was 2 nM. It also gave an IC50 (HIV-1 RoJo) of 5 nM.
In the case of `COc1cc(-c2ccc(/N=N/c3ccc4c(S(=O)(=O)O)cc(S(=O)(=O)O)c(N)c4c3O)c(OC)c2)ccc1/N=N/c1ccc2c(S(=O)(=O)O)cc(S(=O)(=O)O)c(N)c2c1O` [Chicago Sky Blue, reference compound], the “Attachment Assay TC50” value (HeLa CD4 LTR […]-gal cells [1]) is reported as over 10 µg/mL, the “Fusion Assay TC50” value (HeLa CD4 LTR […]-gal cells [2]) is reported as over 10 µg/mL and the “Fusion Assay TI” value [3] is reported as >12 and >16.
In the case of Dextran sulfate, the “CD4-Dependent Transmission Assay TC50” value (GHOST(3) X4/R5 cell line; Exp. 1, without mucin) is reported as over 100 µg/mL, the “CD4-Dependent Transmission Assay TC50” value (GHOST(3) X4/R5 cell line; Exp. 2, with mucin) is reported as over 50 µg/mL and the “CD4-Dependent Transmission Assay TC50” value (GHOST(3) X4/R5 cell line; Exp. 2, without mucin) is reported as over 50 µg/mL. The “CD4-Independent Transmission Assay TC50” value (ME180 cells; Exp. 2, with mucin) was over 50 µg/mL and the “CD4-Independent Transmission Assay TC50” value (ME180 cells; Exp. 2, without mucin) was over 50 µg/mL.
In the case of dextran, the “CD4-Dependent Transmission Assay TC50” value (GHOST(3) X4/R5 cell line; Exp. 1, without mucin) is reported as over 100 µg/mL, the “CD4-Dependent Transmission Assay TC50” value (GHOST(3) X4/R5 cell line; Exp. 2, with mucin) is reported as over 100 µg/mL and the “CD4-Dependent Transmission Assay TC50” value (GHOST(3) X4/R5 cell line; Exp. 2, without mucin) is reported as over 100 µg/mL. The “CD4-Independent Transmission Assay TC50” value (ME180 cells; Exp. 2, with mucin) was over 100 µg/mL and the “CD4-Independent Transmission Assay TC50” value (ME180 cells; Exp. 2, without mucin) was over 100 µg/mL.

— US8158575B2, “Agent for the prevention and treatment of sexually transmitted diseases-I” (priority 2001, dated 2012)
